Measurements reported in patent publication US11007191B2, “Pharmaceutical compositions and dosage forms” (IGNYTA, INC., priority 2017, dated 2021).
Converted amounts (≈) assume the structure as drawn.

Assays:
[1] = gastric-to-intestinal (GB/IB) two-stage dissolution test; assay type: physicochemical; conditions: Example 5, GB stage, 75 mL 0.01M HCl, 100 mg nominal dose
Procedure: A two-stage dissolution test was also conducted on all four coating weights to determine if gastric exposure affected performance.
Gastric-to-intestinal (GB-IB) non-sink dissolution test: The formulation having a 50% theoretical coating weight was tested in a GB-IB non-sink dissolution test as described in the table below:

[2] = non-sink dissolution in pH 6.5 PBS with 0.5% SIF, USP Apparatus II; assay type: physicochemical; conditions: Example 5; 1 mg/mL in PBS pH 6.5 with 0.5% SIF, 37° C., 250 rpm
Procedure: The performance of all four coating weights was evaluated by dissolution in pH 6.5 phosphate buffered saline (PBS) containing 0.5% SIF powder.

[3] = single-dose food effect study in dogs; assay type: in vivo, dog; conditions: formulation that did not comprise at least one polymer
From the text: Such food effects can cause difficulty during human testing of drugs as the fed or fasted condition of the patient can cause exposure or bioavailability of drugs to vary widely.

[4] = solubility in solvents for fluid bed coating; assay type: physicochemical
Procedure: The solutions included 80/20 acetone/water, 95/5 acetone/water, 90/10 acetone/water, methyl ethyl ketone, acetone and methanol at 40° C. […] The lab temperature was monitored and ranged from 17° C. to 25° C., fluctuating with time of day during testing.

[5] = system: various forms of cancer having at least one molecular alteration in one or more of ALK, ROS1, TrkA, TrkB and TrkC; conditions: early clinical studies, patients with alteration in ALK; cited from earlier work
[6] = target: anaplastic lymphoma kinase (ALK) (Homo sapiens, UniProt Q9UM73); conditions: background statement; cited from earlier work
anaplastic lymphoma kinase (ALK), sequence (Q9UM73 19-1620): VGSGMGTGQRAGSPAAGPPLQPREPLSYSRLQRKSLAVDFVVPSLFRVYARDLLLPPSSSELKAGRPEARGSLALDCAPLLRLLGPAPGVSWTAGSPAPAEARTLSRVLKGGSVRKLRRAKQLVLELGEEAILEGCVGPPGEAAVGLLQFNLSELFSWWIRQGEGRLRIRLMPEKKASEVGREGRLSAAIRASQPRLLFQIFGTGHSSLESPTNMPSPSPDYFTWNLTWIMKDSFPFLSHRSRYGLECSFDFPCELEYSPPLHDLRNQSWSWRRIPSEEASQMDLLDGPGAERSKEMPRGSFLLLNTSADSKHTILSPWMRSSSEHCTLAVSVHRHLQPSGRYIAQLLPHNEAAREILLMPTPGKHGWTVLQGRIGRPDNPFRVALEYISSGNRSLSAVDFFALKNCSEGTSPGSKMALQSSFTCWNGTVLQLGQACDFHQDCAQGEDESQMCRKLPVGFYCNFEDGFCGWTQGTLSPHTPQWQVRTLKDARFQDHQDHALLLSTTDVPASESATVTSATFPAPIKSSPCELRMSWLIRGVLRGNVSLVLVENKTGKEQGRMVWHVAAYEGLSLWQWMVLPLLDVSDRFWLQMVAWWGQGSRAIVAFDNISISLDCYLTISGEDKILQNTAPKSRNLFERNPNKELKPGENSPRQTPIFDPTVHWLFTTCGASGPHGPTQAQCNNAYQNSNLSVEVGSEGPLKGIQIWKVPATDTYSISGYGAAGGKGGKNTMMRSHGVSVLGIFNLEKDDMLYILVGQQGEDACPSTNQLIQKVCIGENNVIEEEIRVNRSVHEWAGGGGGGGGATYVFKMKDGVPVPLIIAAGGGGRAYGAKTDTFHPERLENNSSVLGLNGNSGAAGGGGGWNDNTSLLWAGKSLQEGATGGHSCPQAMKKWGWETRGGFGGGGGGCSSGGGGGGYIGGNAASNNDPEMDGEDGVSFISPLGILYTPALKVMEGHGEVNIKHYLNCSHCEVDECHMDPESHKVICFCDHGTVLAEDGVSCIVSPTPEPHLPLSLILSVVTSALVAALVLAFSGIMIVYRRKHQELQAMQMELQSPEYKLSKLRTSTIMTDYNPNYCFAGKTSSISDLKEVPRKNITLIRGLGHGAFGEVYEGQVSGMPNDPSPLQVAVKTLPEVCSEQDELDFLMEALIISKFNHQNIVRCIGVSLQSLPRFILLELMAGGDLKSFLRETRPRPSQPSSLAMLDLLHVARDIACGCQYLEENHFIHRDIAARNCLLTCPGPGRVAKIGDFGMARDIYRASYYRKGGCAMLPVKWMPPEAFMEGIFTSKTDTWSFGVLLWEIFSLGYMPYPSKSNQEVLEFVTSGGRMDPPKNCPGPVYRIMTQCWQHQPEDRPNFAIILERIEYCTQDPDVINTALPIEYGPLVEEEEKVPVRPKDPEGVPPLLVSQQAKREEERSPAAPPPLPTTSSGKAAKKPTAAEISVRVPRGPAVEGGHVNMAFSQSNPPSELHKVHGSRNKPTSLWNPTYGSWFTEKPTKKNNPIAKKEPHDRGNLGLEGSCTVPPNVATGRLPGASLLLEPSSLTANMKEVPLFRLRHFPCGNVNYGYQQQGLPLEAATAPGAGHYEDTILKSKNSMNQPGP

[7] = target: TrkC (Homo sapiens, UniProt Q16288); conditions: background statement; cited from earlier work
TrkC, sequence (Q16288 32-839): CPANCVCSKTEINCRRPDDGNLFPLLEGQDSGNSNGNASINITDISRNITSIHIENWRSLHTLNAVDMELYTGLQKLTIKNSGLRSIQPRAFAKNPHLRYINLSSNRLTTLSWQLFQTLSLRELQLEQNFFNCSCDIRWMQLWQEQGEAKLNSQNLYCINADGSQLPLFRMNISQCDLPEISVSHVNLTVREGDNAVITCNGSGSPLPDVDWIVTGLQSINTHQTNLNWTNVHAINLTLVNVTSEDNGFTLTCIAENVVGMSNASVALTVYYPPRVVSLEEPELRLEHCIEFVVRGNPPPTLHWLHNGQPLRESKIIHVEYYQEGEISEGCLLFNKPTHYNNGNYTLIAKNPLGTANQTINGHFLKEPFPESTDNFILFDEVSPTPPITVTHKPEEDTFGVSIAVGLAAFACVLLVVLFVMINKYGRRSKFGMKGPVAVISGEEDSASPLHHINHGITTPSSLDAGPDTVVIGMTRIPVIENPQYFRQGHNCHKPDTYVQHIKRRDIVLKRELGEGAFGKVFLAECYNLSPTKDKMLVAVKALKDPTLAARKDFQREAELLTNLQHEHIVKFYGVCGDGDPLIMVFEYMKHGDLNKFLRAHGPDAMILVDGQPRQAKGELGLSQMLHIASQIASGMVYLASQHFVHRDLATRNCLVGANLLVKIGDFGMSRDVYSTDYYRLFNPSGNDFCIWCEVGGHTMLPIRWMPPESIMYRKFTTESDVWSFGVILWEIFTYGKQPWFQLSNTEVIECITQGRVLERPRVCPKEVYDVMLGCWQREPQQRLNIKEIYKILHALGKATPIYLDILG

[8] = amorphous solubility in pH 6.5 PBS containing 0.5% SIF; assay type: physicochemical; conditions: phosphate buffered saline with 0.5% SIF powder, fassif; pH 6.5 PBS containing 0.5% SIF powder; read-out: approximate amorphous solubility
[9] = target: TrkB (Homo sapiens, UniProt Q16620); conditions: background statement; cited from earlier work
TrkB, sequence (Q16620 32-822): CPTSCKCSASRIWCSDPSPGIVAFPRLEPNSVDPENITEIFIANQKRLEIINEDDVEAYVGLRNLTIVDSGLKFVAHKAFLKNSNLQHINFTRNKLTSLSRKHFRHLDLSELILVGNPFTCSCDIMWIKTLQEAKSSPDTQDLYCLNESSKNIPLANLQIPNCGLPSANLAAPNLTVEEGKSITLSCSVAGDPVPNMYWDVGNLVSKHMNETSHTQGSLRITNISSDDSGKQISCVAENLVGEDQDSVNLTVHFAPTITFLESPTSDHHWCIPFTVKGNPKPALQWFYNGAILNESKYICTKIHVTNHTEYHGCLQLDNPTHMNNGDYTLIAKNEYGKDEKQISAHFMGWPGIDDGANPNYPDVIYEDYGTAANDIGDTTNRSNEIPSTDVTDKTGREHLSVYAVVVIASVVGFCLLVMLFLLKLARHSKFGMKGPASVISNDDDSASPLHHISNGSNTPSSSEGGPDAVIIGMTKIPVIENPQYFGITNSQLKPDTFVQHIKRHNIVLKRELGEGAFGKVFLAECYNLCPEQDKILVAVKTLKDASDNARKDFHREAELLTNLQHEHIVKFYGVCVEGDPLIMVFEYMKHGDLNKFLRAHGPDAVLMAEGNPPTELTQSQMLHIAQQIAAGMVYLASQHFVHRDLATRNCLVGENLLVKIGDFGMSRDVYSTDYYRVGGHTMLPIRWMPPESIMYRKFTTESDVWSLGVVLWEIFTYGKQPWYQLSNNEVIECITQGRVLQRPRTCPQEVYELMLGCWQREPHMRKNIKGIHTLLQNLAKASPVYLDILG

dose reached in the pH 2.0 media [1] | dose released within about 75 minutes [2] | exposure levels under fed conditions compared to fasting conditions [3] | solubility in acetone/water solutions ([4]; 80/20, 95/5, 90/10 acetone/water, for 24 hours, lab temperature 17-25° C.) | time until completely dissolved in acetone/water solutions ([4]; approximately 170 mg per mL of solvent) | solubility [8] | Structure (SMILES) | antitumor effects in patients [5] | inhibition of ALK [6] | inhibition of TrkC [7] | inhibition of TrkB [9]
full dose | about 15% | – | – | – | – | CN1CCN(c2ccc(C(=O)Nc3n[nH]c4ccc(Cc5cc(F)cc(F)c5)cc34)c(NC3CCOCC3)c2)CC1 [API, N-[5-(3,5-difluorobenzyl)-1H-indazol-3-yl]-4-(4-methyl-piperazin-1-yl)-2-(tetrahydro-2H-pyran-4-ylamino)-benzamide] | – | – | – | –
– | – | approximately 2 fold | greater than mg/mL | ≤ 30 min | ~1000 µg/mL (≈ 1780 µM) | CN1CCN(c2ccc(C(=O)Nc3n[nH]c4ccc(Cc5cc(F)cc(F)c5)cc34)c(NC3CCOCC3)c2)CC1 [N-[5-(3,5-difluorobenzyl)-1H-indazol-3-yl]-4-(4-methyl-piperazin-1-yl)-2-(tetrahydro-2H-pyran-4-ylamino)-benzamide] | antitumor effects | potent inhibitor | potent inhibitor | potent inhibitor
